Measured values from patent US20250214976A1, “GPR35 MODULATORS AND USES THEREOF” (Crossignal Therapeutics, Inc., priority 2022, published 2025).

Biological target: T1, human GPR35 (Homo sapiens, UniProt Q9HC97)
T1 construct: expressed in transfected cells; host or cells: HEK293
Assay: Luciferase Reporter Assay (YAP responsive element) in HEK293 cells stably transfected with human GPR35
Format: cell-based
Settings: overnight incubation
Protocol: HEK293 cells stably transfected with human GPR35 were maintained in Dulbecco's Modified Eagle Medium (DMEM) supplemented with 10% FBS and 300 μg/mL Zeocin and 200 μg/mL Hygromycin at 37° C., 10% CO2. On Day 1, cells were plated in poly-D-lysine coated 96-well tissue culture plate in regular growth medium (DMEM/10% FBS/300 μg/mL Zeocin/200 μg/mL Hygromycin. On the next day, luciferase reporter plasmid DNA with YAP responsive element was transfected into cells using lipofectamine 2000 (Invitrogen) following manufacture's protocol. After transfection for 6 hr., cells were treated with testing compounds in fasting DMEM medium (phenol red free, FBS free) at varying compound concentrations ranging from 10 μM to […] in a 3-fold serial diluted fashion. After an overnight incubation, the luciferase activities were measured with SteadyLite Plus Kit (PerkinElmer) according to manufacturer's protocol. IC50 was determined by fitting the dose-response data to a four-parameter logistic curve using GraphPad Prism.
The symbol “+” indicates IC50 is greater than […]. “++” indicates IC50>100 nM but ≤[…]. “+++” indicates IC50≤100 nM.

T1 sequence (Q9HC97 whole entry): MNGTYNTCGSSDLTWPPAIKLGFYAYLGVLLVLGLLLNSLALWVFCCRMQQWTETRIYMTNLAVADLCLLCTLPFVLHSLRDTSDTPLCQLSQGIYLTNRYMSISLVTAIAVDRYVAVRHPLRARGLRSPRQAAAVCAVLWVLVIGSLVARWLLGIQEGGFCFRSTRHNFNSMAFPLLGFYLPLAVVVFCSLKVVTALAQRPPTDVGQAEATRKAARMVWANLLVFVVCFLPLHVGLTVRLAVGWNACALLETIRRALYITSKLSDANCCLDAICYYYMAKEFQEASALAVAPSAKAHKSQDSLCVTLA

Structure (SMILES) | IC50
O=C(Nc1ccc(OC(CF)CF)c(F)c1)c1coc2cc(-c3nnn[nH]3)c(F)cc12 [Compound 1-35, N-(4-((1,3-difluoropropan-2-yl)oxy)-3-fluorophenyl)-5-fluoro-6-(1H-tetrazol-5-yl)benzofuran-3-carboxamide] | 100 to 1000 nM
O=C(Nc1ccc(OCc2ccc(F)cc2Cl)cc1)c1coc2cc(Oc3nnn[nH]3)c(F)cc12 [Compound 1-39, 6-((1H-tetrazol-5-yl)oxy)-N-(4-((2-chloro-4-fluorobenzyl)oxy)phenyl)-5-fluorobenzofuran-3-carboxamide] | 100 to 1000 nM
O=C(Nc1ccc(Oc2ccc(F)cc2Cl)cc1)c1coc2cc(-c3nnn[nH]3)c(F)cc12 [Compound 1-40, N-(4-(2-chloro-4-fluorophenoxy)phenyl)-5-fluoro-6-(1H-tetrazol-5-yl)benzofuran-3-carboxamide] | 100 to 1000 nM
O=C(Nc1ccc(N2CC3C(C2)C3(F)F)c(F)c1)c1coc2cc(-c3nnn[nH]3)c(F)cc12 (stereo not drawn) [Compound 1-42, N-(4-(6,6-difluoro-3-azabicyclo[3.1.0]hexan-3-yl)-3-fluorophenyl)-5-fluoro-6-(1H-tetrazol-5-yl)benzofuran-3-carboxamide] | 100 to 1000 nM
N#Cc1ccc(COc2ccc(NC(=O)c3coc4cc(-c5nnn[nH]5)c(F)cc34)cc2)c(Cl)c1 [Compound 1-46, N-(4-((2-chloro-4-cyanobenzyl)oxy)phenyl)-5-fluoro-6-(1H-tetrazol-5-yl)benzofuran-3-carboxamide] | 100 to 1000 nM
N#Cc1cc(F)ccc1COc1ccc(NC(=O)c2coc3cc(-c4nnn[nH]4)c(F)cc23)cc1 [Compound 1-48, N-(4-((2-cyano-4-fluorobenzyl)oxy)phenyl)-5-fluoro-6-(1H-tetrazol-5-yl)benzofuran-3-carboxamide] | 100 to 1000 nM
N#Cc1cc(Cl)ccc1COc1ccc(NC(=O)c2coc3cc(-c4nnn[nH]4)c(F)cc23)cc1 [Compound 1-52, N-(4-((4-chloro-2-cyanobenzyl)oxy)phenyl)-5-fluoro-6-(1H-tetrazol-5-yl)benzofuran-3-carboxamide] | 100 to 1000 nM
O=C(Nc1ccc(OCc2cc(Cl)c(Cl)s2)cc1)c1coc2cc(-c3nnn[nH]3)c(F)cc12 [Compound 1-57, N-(4-((4,5-dichlorothiophen-2-yl)methoxy)phenyl)-5-fluoro-6-(1H-tetrazol-5-yl)benzofuran-3-carboxamide] | 100 to 1000 nM
O=C(Nc1ccc(C2CCCC2)c(F)c1)c1csc2cc(-c3nnn[nH]3)ccc12 [Compound 1-58, N-(4-cyclopentyl-3-fluorophenyl)-6-(1H-tetrazol-5-yl)benzo[b]thiophene-3-carboxamide] | ≤ 100 nM

Results, then the compound that gave them:

IC50 | Structure (SMILES)
≤ 100 nM | O=C(Nc1ccc(OCc2ccc(Cl)cc2F)cc1)c1coc2cc(-c3nnn[nH]3)c(F)cc12 [Compound 1-41, N-(4-((4-chloro-2-fluorobenzyl)oxy)phenyl)-5-fluoro-6-(1H-tetrazol-5-yl)benzofuran-3-carboxamide]
≤ 100 nM | O=C(Nc1ccc(OCc2ccc(F)c(Cl)c2)cc1)c1coc2cc(-c3nnn[nH]3)c(F)cc12 [Compound 1-43, N-(4-((3-chloro-4-fluorobenzyl)oxy)phenyl)-5-fluoro-6-(1H-tetrazol-5-yl)benzofuran-3-carboxamide]
100 to 1000 nM | O=C(Nc1ccc(OCc2cccc(F)c2Cl)cc1)c1coc2cc(-c3nnn[nH]3)c(F)cc12 [Compound 1-44, N-(4-((2-chloro-3-fluorobenzyl)oxy)phenyl)-5-fluoro-6-(1H-tetrazol-5-yl)benzofuran-3-carboxamide]
100 to 1000 nM | O=C(Nc1ccc(OCc2cc(F)cc(Cl)c2)cc1)c1coc2cc(-c3nnn[nH]3)c(F)cc12 [Compound 1-45, N-(4-((3-chloro-5-fluorobenzyl)oxy)phenyl)-5-fluoro-6-(1H-tetrazol-5-yl)benzofuran-3-carboxamide]
100 to 1000 nM | O=C(Nc1ccc(OCc2ccc(F)cn2)cc1)c1coc2cc(-c3nnn[nH]3)c(F)cc12 [Compound 1-47, 5-fluoro-N-(4-((5-fluoropyridin-2-yl)methoxy)phenyl)-6-(1H-tetrazol-5-yl)benzofuran-3-carboxamide]
≤ 100 nM | O=C(Nc1ccc(OCc2ccc(Cl)c(F)c2)cc1)c1coc2cc(-c3nnn[nH]3)c(F)cc12 [Compound 1-49, N-(4-((4-chloro-3-fluorobenzyl)oxy)phenyl)-5-fluoro-6-(1H-tetrazol-5-yl)benzofuran-3-carboxamide]
100 to 1000 nM | O=C(Nc1ccc(OCc2cc(F)c(F)cc2Cl)cc1)c1coc2cc(-c3nnn[nH]3)c(F)cc12 [Compound 1-50, N-(4-((2-chloro-4,5-difluorobenzyl)oxy)phenyl)-5-fluoro-6-(1H-tetrazol-5-yl)benzofuran-3-carboxamide]
≤ 100 nM | O=C(Nc1ccc(OCc2ccc(Cl)cn2)cc1)c1coc2cc(-c3nnn[nH]3)c(F)cc12 [Compound 1-51, N-(4-((5-chloropyridin-2-yl)methoxy)phenyl)-5-fluoro-6-(1H-tetrazol-5-yl)benzofuran-3-carboxamide]
≤ 100 nM | O=C(Nc1ccc(OCc2cc(F)c(Cl)c(F)c2)cc1)c1coc2cc(-c3nnn[nH]3)c(F)cc12 [Compound 1-53, N-(4-((4-chloro-3,5-difluorobenzyl)oxy)phenyl)-5-fluoro-6-(1H-tetrazol-5-yl)benzofuran-3-carboxamide]
100 to 1000 nM | O=C(Nc1ccc(OCc2c(F)cc(Cl)cc2F)cc1)c1coc2cc(-c3nnn[nH]3)c(F)cc12 [Compound 1-54, N-(4-((4-chloro-2,6-difluorobenzyl)oxy)phenyl)-5-fluoro-6-(1H-tetrazol-5-yl)benzofuran-3-carboxamide]
100 to 1000 nM | O=C(Nc1ccc(OCc2cc(F)c(Cl)cc2F)cc1)c1coc2cc(-c3nnn[nH]3)c(F)cc12 [Compound 1-55, N-(4-((4-chloro-2,5-difluorobenzyl)oxy)phenyl)-5-fluoro-6-(1H-tetrazol-5-yl)benzofuran-3-carboxamide]
≤ 100 nM | O=C(Nc1ccc(OCc2cc(Cl)cs2)cc1)c1coc2cc(-c3nnn[nH]3)c(F)cc12 [Compound 1-56, N-(4-((4-chlorothiophen-2-yl)methoxy)phenyl)-5-fluoro-6-(1H-tetrazol-5-yl)benzofuran-3-carboxamide]
